Source: patent US9925166B2, “Methods of treating an overweight or obese subject” (Zafgen, Inc., priority 2008, dated 2018)
“And” between values parts separate entries of the source, which are not always exact repeats. Identical values can stand only once. Like-named read-outs stand apart in the source and are kept apart here.

What was measured:
blood cells = assay: Complete blood analysis (CBC) after oral fumagillin in lean rats (Example 9); assay type: in vivo, Sprague-Dawley rats; conditions: for lymphocyte count / neutrophil count / white blood cell count: 3 mg/kg oral gavage on day 3 and day 9
Procedure: Male lean Sprague-Dawley rats were divided into two groups, ten rats per group. One group of rats received fumagillin by oral gavage as a solution in 10% DMSO, at dose of 3 mg/kg. Administration of fumagillin to this group of rats was performed on day 3 and day 9 of the study. The other group of rats was administered by oral gavage a solution of 10% DMSO/90% water (vehicle-only). Administration of vehicle to this group of rats was performed on day 3 and day 9 of the study. Blood samples were collected daily for complete blood analysis (CBC).

diet-induced obese mice [1] = assay: 47-day weight and food intake study in diet-induced obese mice (Example 5); assay type: in vivo, C57BL/6NTac mice; conditions: 1 mg/kg/day oral gavage
Procedure: Mice were divided into two groups, a diet-induced obese group and a lean group (control). For the diet-induced obese group, C57BL/6NTac mice maintained prior to and during the study on a diet containing 60% fat on a kilocalorie basis were further divided into two groups, fifteen mice per group. Average body weight of these diet-induced obese mice was 40 g at the start of the study. […] Daily food consumption was also recorded.
Fumagillin was administered to one of the diet-induced obese mice groups by oral gavage as a solution in 10% DMSO, at dose of 1 mg/kg/day, for 47 days. The other diet-induced obese mice group and the lean mice group were not administered anything.

[2] = Plasma concentration after oral administration in a non-enterically coated capsule (Example 7); assay type: in vivo, Sprague-Dawley rats; conditions: 30 mg/kg capsule oral
Procedure: A study was undertaken to investigate absorption of fumagillin orally administered in a capsule. Five male Sprague-Dawley rats were fasted, and were then each orally administered a non-enterically coated capsule containing 30 mg/kg of fumagillin. […] (graphically illustrated as 0.17), 20 min. (graphically illustrated as 0.33), 30 min. […]

leptin = assay: Plasma marker leptin in diet-induced obese mice (Example 10); assay type: in vivo, C57BL/6 mice; conditions: 1 mg/kg/day oral gavage, end of study vs prior, FIG. 15
Procedure: Mice were divided into four groups, a diet-induced obese group administered fumagillin at 1 mg/kg/day (oral gavage as a solution in 0.25% DMSO), a Pair-fed group, a caloric restriction group, and a diet-induced obese group. For the diet-induced obese groups, C57BL/6 mice were maintained prior to and during the study on a diet containing 42% fat on a kilocalorie basis. Plasma markers were measured prior to and at the end of the study.

[3] = Plasma concentration after intraduodenal administration (Example 8); assay type: in vivo, Sprague-Dawley rats; conditions: 30 mg/kg intraduodenal; for ZGN-201 Conc. in Rat Plasma, individual animals: listed as ZGN-201
Procedure: A study was undertaken to investigate absorption of fumagillin from the small intestine. Five male Sprague-Dawley rats were fasted, and were then catheterized into the duodenum, 1.5 centimeters below the stomach. The stomachs of these rats were tied off so administration would bypass the stomach of each rat. Rats were then infused with 30 mg/kg of fumagillin and an equal volume of Trypan blue (Invitrogen). To determine absorption of fumagillin into the small intestine, blood was collected from the jugular vein of each rat at time points of 0 min., 5 min. (graphically illustrated as 0.083), 15 min. (graphically illustrated as 0.25), 30 min. (graphically illustrated as 0.5), 2 hrs, and 8 hrs.

diet-induced obese mice [4] = assay: Weight loss study in diet-induced obese mice, oral gavage 28 days (Example 2); assay type: in vivo, C57BL/6NTac mice; conditions: for weight loss as a percentage of pre-study weight: 28 days, end of study
Procedure: The mice in this study were not genetically obese, but prior to and during the study, obesity was induced by a high-fat diet. Twelve week-old C57BL/6NTac mice, maintained on a 60% fat diet prior to and during the study, were separated into six groups, eight animals per group.
Fumagillin was administered to four of the diet-induced obese mice groups by oral gavage as a solution in 10% DMSO, at doses of 1 mg/kg/day, 3 mg/kg/day, 10 mg/kg/day and 30 mg/kg/day respectively, for 28 days. A fifth group received 10% DMSO vehicle-only (control) by oral gavage, and the sixth group received neither vehicle nor fumagillin (naïve). Body weight was measured on day 0 (pre-study) and subsequently on day 3, day 8, day 15, day 22, and day 29 of the study. Daily food consumption was also recorded.

diet-induced obese mice [5] = assay: Percent fat change and lean mass change by NMR in diet-induced obese mice, 28 days (Example 6); assay type: in vivo, C57BL6J mice
Procedure: Mice were first divided into three groups, a control group, a diet-induced obese group, and a lean group. For the diet-induced obese group, C57BL6J mice maintained prior to and during the study on a diet containing 40% fat on a kilocalorie basis were further divided into two groups. For the lean group, C57BL6J mice were maintained on a diet containing 4% by weight fat prior to and during the study. Each of the groups was subsequently divided as described below.
The lean group was administered 1% DMSO vehicle for 28 days. Percent fat change and percent lean mass change from baseline were determined by NMR after 28 days.

[6] = mouse, 33 mg/kg/day; Ingbar et al.; cited from earlier work

CO[C@@H]1[C@H](OC(=O)/C=C/C=C/C=C/C=C/C(=O)O)CC[C@]2(CO2)[C@H]1[C@@]1(C)O[C@@H]1CC=C(C)C [fumagillin]
lymphocyte count (blood cells; day 3): approximately 4000 lymphocytes/4 | neutrophil count (blood cells; day 3): approximately 650 neutrophils/4 | white blood cell count (blood cells; day 3): approximately 5000 white blood cells/4 | lymphocyte count (blood cells; day 9): approximately 3900 lymphocytes/4 | neutrophil count (blood cells; day 9): approximately 1100 neutrophils/4 | white blood cell count (blood cells; day 9): approximately 5200 white blood cells/4 | development of a blood disorder (blood cells; 3 mg/kg oral gavage, rats): do not result in development of a blood disorder | variation vs vehicle-only rats in white blood cell, lymphocyte and neutrophil count (blood cells; 3 mg/kg oral gavage, statistical analysis): not statistically significant | effect on lean body mass (diet-induced obese mice [1]; 47 days, weight plateaued at weight of lean mice): without substantial reduction of lean body mass | average weight (diet-induced obese mice [1]; day seventeen (from 40 g on day 1)): 32 g | average weight (diet-induced obese mice [1]; maintained through day 47): approximately 32 g | amount of food consumed (diet-induced obese mice [1]; throughout 47 days): 2.2 g/day | ZGN-201 Conc. in Rat Plasma, individual animals ([2]; male rats 1-5, time point 0 hr): BQL (BQL: 1 ng/mL) | ZGN-201 Conc. in Rat Plasma, individual animals ([2]; male rats 1-5, time point 0.17 hr): BQL (BQL: 1 ng/mL) | ZGN-201 Conc. in Rat Plasma, individual animals ([2]; male rats 1-5, time point 0.33 hr, listed as ZGN-201): 5.3 ng/mL and 1.9 ng/mL and 1.6 ng/mL and 1.8 ng/mL and 5.2 ng/mL | ZGN-201 Conc. in Rat Plasma, individual animals ([2]; male rats 1-5, time point 0.5 hr, listed as ZGN-201): 14.3 ng/mL and 4.5 ng/mL and 3.6 ng/mL and 3 ng/mL and 11.4 ng/mL | ZGN-201 Conc. in Rat Plasma, individual animals ([2]; male rats 1-5, time point 1 hr, listed as ZGN-201): 36.1 ng/mL and 14.5 ng/mL and 8.9 ng/mL and 3.6 ng/mL and 117.9 ng/mL | ZGN-201 Conc. in Rat Plasma, individual animals ([2]; male rats 1-5, time point 2 hr, listed as ZGN-201): 81.2 ng/mL and 98.2 ng/mL and 125.4 ng/mL and 9.5 ng/mL and 156.4 ng/mL | ZGN-201 Conc. in Rat Plasma, individual animals ([2]; male rats 1-5, time point 8 hr, listed as ZGN-201): 36.6 ng/mL and 47.1 ng/mL and 141.3 ng/mL and 31.6 ng/mL and 116.8 ng/mL | absorption through the stomach ([2]; rats): poorly absorbed through the stomach | time after administration at which absorption is first observed ([2]; rats): 20 min | time of peak absorption after administration ([2]; rats): approximately 2 hrs | maximal concentration absorbed into the blood ([2]; rats, time point 2): approximately 100 ng/ml | concentration at 0.33 hr ([2]; male, Sprague-Dawley, rat, plasma, oral, 30 mg/kg, male rats, time point 0.33 hr, read-out: ZGN-201 Conc. in Rat Plasma, Mean): 3 ng/mL | concentration at 0.5 hr ([2]; male, Sprague-Dawley, rat, plasma, oral, 30 mg/kg, male rats, time point 0.5 hr, read-out: ZGN-201 Conc. in Rat Plasma, Mean): 7 ng/mL | concentration at 1 hr ([2]; male, Sprague-Dawley, rat, plasma, oral, 30 mg/kg, male rats, time point 1 hr, read-out: ZGN-201 Conc. in Rat Plasma, Mean): 36 ng/mL | concentration at 2 hr ([2]; male, Sprague-Dawley, rat, plasma, oral, 30 mg/kg, male rats, time point 2 hr, read-out: ZGN-201 Conc. in Rat Plasma, Mean): 94 ng/mL | concentration at 8 hr ([2]; male, Sprague-Dawley, rat, plasma, oral, 30 mg/kg, male rats, time point 8 hr, read-out: ZGN-201 Conc. in Rat Plasma, Mean): 75 ng/mL | leptin levels (leptin): reduced | ZGN-201 Conc. in Rat Plasma, individual animals ([3]; male rats 1, 3, 4, 5, time point 0 hr): BQL (BQL: 1 ng/mL) | ZGN-201 Conc. in Rat Plasma, individual animals ([3]; male rats 1, 3, 4, 5, time point 0.083 hr): 30286.5 ng/mL and 30532.1 ng/mL and 31057 ng/mL | ZGN-201 Conc. in Rat Plasma, individual animals ([3]; male rats 1, 3, 4, 5, time point 0.25 hr): 9275.7 ng/mL and 9903.7 ng/mL and 13584.2 ng/mL | ZGN-201 Conc. in Rat Plasma, individual animals ([3]; male rats 1, 3, 4, 5, time point 0.5 hr): 1104.6 ng/mL and 2295 ng/mL and 1109.8 ng/mL and 1225.1 ng/mL | ZGN-201 Conc. in Rat Plasma, individual animals ([3]; male rats 1, 3, 4, 5, time point 2 hr): 95 ng/mL and 66.5 ng/mL and 79.3 ng/mL and 27.5 ng/mL | ZGN-201 Conc. in Rat Plasma, individual animals ([3]; male rats 1, 3, 4, 5, time point 8 hr): 9 ng/mL and 6.9 ng/mL and 6.8 ng/mL | absorption profile compared to absorption through the stomach ([3]; rats): large absorption profile in the small intestine | concentration at 0 hr ([3]; male, Sprague-Dawley, rat, plasma, other: intraduodenal, 30 mg/kg, male rats 1, 3, 4, 5, time point 0 hr, read-out: ZGN-201 Conc. in Rat Plasma, individual animals): 1 ng/mL | concentration at 0.083 hr ([3]; male, Sprague-Dawley, rat, plasma, other: intraduodenal, 30 mg/kg, male rats 1, 3, 4, 5, time point 0.083 hr, read-out: ZGN-201 Conc. in Rat Plasma, individual animals): 31400 ng/mL | concentration at 0.25 hr ([3]; male, Sprague-Dawley, rat, plasma, other: intraduodenal, 30 mg/kg, male rats 1, 3, 4, 5, time point 0.25 hr, read-out: ZGN-201 Conc. in Rat Plasma, individual animals): 7710 ng/mL | concentration at 8 hr ([3]; male, Sprague-Dawley, rat, plasma, other: intraduodenal, 30 mg/kg, male rats 1, 3, 4, 5, time point 8 hr, read-out: ZGN-201 Conc. in Rat Plasma, individual animals): 11.9 ng/mL | concentration at 0.083 hr ([3]; male, Sprague-Dawley, rat, plasma, other: intraduodenal, 30 mg/kg, male rats, time point 0.083 hr, read-out: ZGN-201 Conc. in Rat Plasma, Mean): 25100 ng/mL | concentration at 0.25 hr ([3]; male, Sprague-Dawley, rat, plasma, other: intraduodenal, 30 mg/kg, male rats, time point 0.25 hr, read-out: ZGN-201 Conc. in Rat Plasma, Mean): 9200 ng/mL | concentration at 0.5 hr ([3]; male, Sprague-Dawley, rat, plasma, other: intraduodenal, 30 mg/kg, male rats, time point 0.5 hr, read-out: ZGN-201 Conc. in Rat Plasma, Mean): 1730 ng/mL | concentration at 2 hr ([3]; male, Sprague-Dawley, rat, plasma, other: intraduodenal, 30 mg/kg, male rats, time point 2 hr, read-out: ZGN-201 Conc. in Rat Plasma, Mean): 506 ng/mL | concentration at 8 hr ([3]; male, Sprague-Dawley, rat, plasma, other: intraduodenal, 30 mg/kg, male rats, time point 8 hr, read-out: ZGN-201 Conc. in Rat Plasma, Mean): 20 ng/mL | concentration at 5 min ([3]; male, Sprague-Dawley, rat, plasma, other: intraduodenal, 30 mg/kg, rats, 5 min. from administration (time point 0.083), read-out: amount of absorption by the small intestine): 3000 ng/mL | neutrophil counts compared to vehicle-only mice (diet-induced obese mice [4]; 1 mg/kg and 3 mg/kg oral): decreased | weight loss as a percentage of pre-study weight (diet-induced obese mice [4]; 1 mg/kg/day oral gavage): 15% | weight loss as a percentage of pre-study weight (diet-induced obese mice [4]; 3 mg/kg/day oral gavage): 18% | neutrophil counts compared to vehicle-only mice (diet-induced obese mice [4]; 10 mg/kg and 30 mg/kg oral): increased | weight loss as a percentage of pre-study weight (diet-induced obese mice [4]; 10 mg/kg/day oral gavage): 21% | weight loss as a percentage of pre-study weight (diet-induced obese mice [4]; 30 mg/kg/day oral gavage): 33% | food consumption among dose groups (diet-induced obese mice [4]; 30 mg/kg/day oral, 30 day period): consuming the least amount of food | food consumption vs vehicle-only and naive mice (diet-induced obese mice [4]; 1-30 mg/kg/day oral, 30 day period): consumed less food | leukocytes, particularly lymphocytes (hematology) (diet-induced obese mice [4]; fumagillin dose groups, oral): decrease | platelets (diet-induced obese mice [4]; fumagillin dose groups, oral): No decrease | cholesterol levels (diet-induced obese mice [4]; fumagillin treatment, oral): reductions | serum glucose levels (diet-induced obese mice [4]; fumagillin treatment, oral): reductions | non-effective dose (diet-induced obese mice [4]; oral gavage, weight loss, not identified, concluded): below 1 mg/kg/day | weight loss (diet-induced obese mice [5]; 0.3 mg/kg/day oral gavage): lost significant amounts of weight | weight loss (diet-induced obese mice [5]; 1.0 mg/kg/day oral gavage): losing a greater amount of weight | loss of lean body mass (NMR) (diet-induced obese mice [5]; 0.3 or 1.0 mg/kg/day oral gavage): without resulting in substantial loss of lean body mass | side-effect of administration (wasting) [6]: severe weight loss
